Data published in patent US12723063B2, “GIPR-agonist compounds” (Eli Lilly and Company, priority 2019, dated 2026).
*1 amine or outer side, *2 acyl side, *3 side chain or, on linkers, in order; H or OH if unused. Where a SMILES comes first, the peptide text is derived from it. Side-chain parts run from the residue outwards. [ ]: non-standard residue; d: D form. The star is where a group is joined. C20 diacid = O=C(O)CCCCCCCCCCCCCCCCCCC(=O)*; C18 diacid = O=C(O)CCCCCCCCCCCCCCCCC(=O)*; αMePhe(2-F) = C[C@](N)(Cc1ccccc1F)C(=O)O; γGlu = O=C(O)[C@H](CCC(=O)[*:2])N[*:1]; 4Pal = N[C@@H](Cc1ccncc1)C(=O)O; αMeL = CC(C)C[C@](C)(N)C(=O)O; Iva = CC[C@](C)(N)C(=O)O; AEEA = NCCOCCOCC(=O)O; Aib = CC(C)(N)C(=O)O

Tests used:
[1] = biological target: T1, human glucagon receptor (GcgR) (Homo sapiens, UniProt P47871); assay: cAMP functional assay (HTRF) in HEK293 cells in presence of 0.1% casein; assay type: cell-based; conditions: HEK293 cells expressing human GcgR, geometric mean, read-out: hGcgR cAMP Rel EC50 nM (SEM, n)
T1 construct: expressed in transfected cells; host or cells: HEK293

[2] = biological target: T2, human glucose-dependent insulinotropic peptide receptor (GIPR) (Homo sapiens, UniProt P48546); assay: as above; assay type: cell-based; conditions: HEK293 cells expressing human GIPR, geometric mean, read-out: hGIPR cAMP Rel EC50 nM (SEM, n)
T2 construct: expressed in transfected cells; host or cells: HEK293
T2 sequence (P48546 22-466): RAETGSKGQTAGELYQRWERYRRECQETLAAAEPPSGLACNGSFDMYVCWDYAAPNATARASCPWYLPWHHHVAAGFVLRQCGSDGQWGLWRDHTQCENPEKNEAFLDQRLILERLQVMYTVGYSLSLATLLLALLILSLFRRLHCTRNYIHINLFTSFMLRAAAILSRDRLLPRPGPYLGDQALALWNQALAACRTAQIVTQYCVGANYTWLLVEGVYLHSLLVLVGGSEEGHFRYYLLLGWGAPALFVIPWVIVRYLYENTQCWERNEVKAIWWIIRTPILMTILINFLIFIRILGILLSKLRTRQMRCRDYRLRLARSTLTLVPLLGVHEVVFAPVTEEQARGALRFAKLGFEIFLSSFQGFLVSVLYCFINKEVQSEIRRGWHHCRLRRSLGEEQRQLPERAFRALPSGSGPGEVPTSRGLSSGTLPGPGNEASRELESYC

T1 sequence (P47871 26-477): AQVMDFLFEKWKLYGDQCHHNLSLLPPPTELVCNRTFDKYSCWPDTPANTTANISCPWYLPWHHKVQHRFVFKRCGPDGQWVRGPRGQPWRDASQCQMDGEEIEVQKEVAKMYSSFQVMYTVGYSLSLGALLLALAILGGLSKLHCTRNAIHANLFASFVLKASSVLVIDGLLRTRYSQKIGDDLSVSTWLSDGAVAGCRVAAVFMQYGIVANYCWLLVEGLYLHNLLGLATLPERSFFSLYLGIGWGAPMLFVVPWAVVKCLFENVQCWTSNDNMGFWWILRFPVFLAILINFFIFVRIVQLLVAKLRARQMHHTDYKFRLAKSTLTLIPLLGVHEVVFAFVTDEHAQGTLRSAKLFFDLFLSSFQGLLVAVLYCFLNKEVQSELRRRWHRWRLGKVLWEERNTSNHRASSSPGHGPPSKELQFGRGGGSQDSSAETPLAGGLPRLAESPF

`CC[C@H](C)[C@H](NC(=O)[C@H](CO)NC(=O)[C@H](Cc1ccc(O)cc1)NC(=O)[C@H](CC(=O)O)NC(=O)[C@H](CO)NC(=O)[C@@H](NC(=O)[C@H](Cc1ccccc1)NC(=O)[C@@H](NC(=O)CNC(=O)[C@H](CCC(=O)O)NC(=O)[C@@H](C)NC(=O)[C@@H](N)Cc1ccc(O)cc1)[C@@H](C)O)[C@@H](C)CC)C(=O)N[C@@H](CC(C)C)C(=O)N[C@@H](CC(C)C)C(=O)N[C@@H](CC(=O)O)C(=O)N[C@@H](CCCCN)C(=O)N[C@@H](CCCCNC(=O)COCCOCCNC(=O)COCCOCCNC(=O)CC[C@H](NC(=O)CCCCCCCCCCCCCCCCC(=O)O)C(=O)O)C(=O)N[C@@H](C)C(=O)N[C@@H](CCC(N)=O)C(=O)NC(C)(C)C(=O)N[C@@H](CCC(=O)O)C(=O)N[C@@H](Cc1ccccc1)C(=O)N[C@H](C(=O)N[C@@H](CCC(=O)O)C(=O)N[C@@H](Cc1c[nH]c2ccccc12)C(=O)N[C@@H](CC(C)C)C(=O)N[C@@H](CC(C)C)C(=O)N[C@@H](C)C(=O)NCC(=O)NCC(=O)N1CCC[C@H]1C(=O)N[C@@H](CO)C(=O)N[C@@H](CO)C(=O)NCC(=O)N[C@@H](C)C(=O)N1CCC[C@H]1C(=O)N1CCC[C@H]1C(=O)N1CCC[C@H]1C(=O)N[C@@H](CO)C(N)=O)C(C)C` [Example 29] (H-Y[dA]EGTFISDYSILLDKK([AEEA-AEEA-γGlu-C18 diacid])AQ[Aib]EFVEWLLAGGPSSGAPPPS-NH2) showed an EC50 [1] of over 5000 nM and an EC50 [2] of 0.00679 nM.

Work on `CC[C@H](C)[C@H](NC(=O)[C@H](CO)NC(=O)[C@H](Cc1ccc(O)cc1)NC(=O)[C@H](CC(=O)O)NC(=O)[C@H](CO)NC(=O)[C@@H](NC(=O)[C@](C)(Cc1ccccc1F)NC(=O)[C@@H](NC(=O)CNC(=O)[C@H](CCC(=O)O)NC(=O)[C@H](C)NC(=O)[C@@H](Cc1ccc(O)cc1)NC(C)=O)[C@@H](C)O)[C@@H](C)CC)C(=O)N[C@@H](C)C(=O)N[C@@H](CC(C)C)C(=O)N[C@@H](CC(=O)O)C(=O)N[C@@H](CCCCN)C(=O)N[C@@H](CCCCNC(=O)COCCOCCNC(=O)COCCOCCNC(=O)CC[C@H](NC(=O)CCCCCCCCCCCCCCCCC(=O)O)C(=O)O)C(=O)N[C@@H](Cc1c[nH]cn1)C(=O)N[C@@H](CCC(N)=O)C(=O)NC(C)(C)C(=O)N[C@@H](CCC(=O)O)C(=O)N[C@@H](Cc1ccccc1)C(=O)N[C@H](C(=O)N[C@@H](CC(N)=O)C(=O)N[C@@H](Cc1ccc(O)cc1)C(=O)N[C@@H](CC(C)C)C(=O)N[C@@H](CC(C)C)C(=O)N[C@@H](C)C(=O)NCC(=O)NCC(=O)N1CCC[C@H]1C(=O)N[C@@H](CO)C(=O)N[C@@H](CO)C(=O)NCC(=O)N[C@@H](C)C(=O)N1CCC[C@H]1C(=O)N1CCC[C@H]1C(=O)N1CCC[C@H]1C(=O)N[C@@H](CO)C(N)=O)C(C)C` [Example 30] (Ac-[dY]AEGT[αMePhe(2-F)]ISDYSIALDKK([AEEA-AEEA-γGlu-C18 diacid])HQ[Aib]EFVNYLLAGGPSSGAPPPS-NH2) yielded an EC50 [1] of over 5000 nM and an EC50 [2] of 0.00572 nM.

`CC[C@H](C)[C@H](NC(=O)[C@H](CO)NC(=O)[C@H](Cc1ccc(O)cc1)NC(=O)[C@H](CC(=O)O)NC(=O)[C@H](CO)NC(=O)[C@@H](NC(=O)[C@H](Cc1ccccc1)NC(=O)[C@@H](NC(=O)CNC(=O)[C@H](CCC(=O)O)NC(=O)C(C)(C)NC(=O)[C@@H](N)Cc1ccc(O)cc1)[C@@H](C)O)[C@@H](C)CC)C(=O)N[C@@H](CC(C)C)C(=O)N[C@@H](CC(C)C)C(=O)N[C@@H](CC(=O)O)C(=O)N[C@@H](CCCCN)C(=O)N[C@@H](CCCCNC(=O)COCCOCCNC(=O)COCCOCCNC(=O)CC[C@H](NC(=O)CCCCCCCCCCCCCCCCC(=O)O)C(=O)O)C(=O)N[C@@H](Cc1c[nH]cn1)C(=O)N[C@@H](CCC(N)=O)C(=O)NC(C)(C)C(=O)N[C@@H](CC(=O)O)C(=O)N[C@@H](Cc1ccccc1)C(=O)N[C@H](C(=O)N[C@@H](CC(N)=O)C(=O)N[C@@H](Cc1ccc(O)cc1)C(=O)N[C@@H](CC(C)C)C(=O)N[C@@H](CC(C)C)C(=O)N[C@@H](C)C(=O)N[C@@H](C)C(=O)NCC(=O)N1CCC[C@H]1C(=O)N[C@@H](CO)C(=O)N[C@@H](CO)C(=O)NCC(=O)N[C@@H](C)C(=O)N1CCC[C@H]1C(=O)N1CCC[C@H]1C(=O)N1CCC[C@H]1C(=O)N[C@@H](CO)C(N)=O)C(C)C` [Example 31] (H-Y[Aib]EGTFISDYSILLDKK([AEEA-AEEA-γGlu-C18 diacid])HQ[Aib]DFVNYLLAAGPSSGAPPPS-NH2) showed an EC50 [1] of 1750 nM and an EC50 [2] of 0.0148 nM.

`CC[C@H](C)[C@H](NC(=O)[C@H](CC(C)C)NC(=O)[C@@H](NC(=O)CNC(=O)[C@H](CCC(=O)O)NC(=O)C(C)(C)NC(=O)[C@@H](N)Cc1ccc(O)cc1)[C@@H](C)O)C(=O)N[C@@H](CO)C(=O)N[C@@H](CC(=O)O)C(=O)N[C@@H](Cc1ccc(O)cc1)C(=O)N[C@@H](CO)C(=O)N[C@H](C(=O)N[C@@](C)(CC(C)C)C(=O)N[C@@H](CC(C)C)C(=O)N[C@@H](CC(=O)O)C(=O)N[C@@H](CCCCN)C(=O)N[C@@H](CCCCNC(=O)COCCOCCNC(=O)COCCOCCNC(=O)CC[C@H](NC(=O)CCCCCCCCCCCCCCCCCCC(=O)O)C(=O)O)C(=O)N[C@@H](Cc1c[nH]cn1)C(=O)N[C@@H](CCC(N)=O)C(=O)NC(C)(C)C(=O)N[C@@H](CCC(=O)O)C(=O)N[C@@H](Cc1ccccc1)C(=O)N[C@H](C(=O)N[C@@H](CCC(=O)O)C(=O)N[C@@H](Cc1ccc(O)cc1)C(=O)N[C@@H](CC(C)C)C(=O)N[C@@H](CC(C)C)C(=O)N[C@@H](CCC(=O)O)C(=O)NCC(=O)NCC(=O)N1CCC[C@H]1C(=O)N[C@@H](CO)C(=O)N[C@@H](CO)C(=O)NCC(=O)N[C@@H](C)C(=O)N1CCC[C@H]1C(=O)N1CCC[C@H]1C(=O)N1CCC[C@H]1C(=O)N[C@@H](CO)C(N)=O)C(C)C)[C@@H](C)CC` [Example 73] (H-Y[Aib]EGTLISDYSI[αMeL]LDKK([AEEA-AEEA-γGlu-C20 diacid])HQ[Aib]EFVEYLLEGGPSSGAPPPS-NH2) was tested, and the EC50 [1] was over 5000 nM and the EC50 [2] was 0.0151 nM.

Work on `CC[C@H](C)[C@H](NC(=O)[C@H](CO)NC(=O)[C@H](Cc1ccc(O)cc1)NC(=O)[C@H](CC(=O)O)NC(=O)[C@H](CO)NC(=O)[C@@H](NC(=O)[C@](C)(CC)NC(=O)[C@@H](NC(=O)CNC(=O)[C@H](CCC(=O)O)NC(=O)C(C)(C)NC(=O)[C@@H](N)Cc1ccc(O)cc1)[C@@H](C)O)[C@@H](C)CC)C(=O)N[C@@](C)(CC(C)C)C(=O)N[C@@H](CC(C)C)C(=O)N[C@@H](CC(=O)O)C(=O)N[C@@H](CCCCN)C(=O)N[C@@H](CCCCNC(=O)COCCOCCNC(=O)COCCOCCNC(=O)CC[C@H](NC(=O)CCCCCCCCCCCCCCCCCCC(=O)O)C(=O)O)C(=O)N[C@@H](Cc1c[nH]cn1)C(=O)N[C@@H](CCC(N)=O)C(=O)NC(C)(C)C(=O)N[C@@H](CC(=O)O)C(=O)N[C@@H](Cc1ccccc1)C(=O)N[C@H](C(=O)N[C@@H](CCC(=O)O)C(=O)N[C@@H](Cc1ccncc1)C(=O)N[C@@H](CC(C)C)C(=O)N[C@@H](CC(C)C)C(=O)N[C@@H](CCC(=O)O)C(=O)NCC(=O)NCC(=O)N1CCC[C@H]1C(=O)N[C@@H](CO)C(=O)N[C@@H](CO)C(=O)NCC(=O)N[C@@H](C)C(=O)N1CCC[C@H]1C(=O)N1CCC[C@H]1C(=O)N1CCC[C@H]1C(=O)N[C@@H](CO)C(N)=O)C(C)C` [Example 74] (H-Y[Aib]EGT[Iva]ISDYSI[αMeL]LDKK([AEEA-AEEA-γGlu-C20 diacid])HQ[Aib]DFVE[4Pal]LLEGGPSSGAPPPS-NH2) yielded an EC50 [1] of 627 nM and an EC50 [2] of 0.0167 nM.
